PMC11171218, “N-Benzylated 5-Hydroxybenzothiophene-2-carboxamides as Multi-Targeted Clk/Dyrk Inhibitors and Potential Anticancer Agents” (Cancers, 2024)
pIC50: −log10 of the molar value.

Experiments:
[1] = target: Dyrk1B (Homo sapiens, UniProt Q9Y463); experiment: Z'-LYTE kinase inhibition assay, Dyrk1B; type: biochemical; details: for pIC50: ATP conc. equivalent to Km; for inhibition at 1 µM: read-out: Dyrk1B % Inh. At 1 µM
From the text: (§1) 3. Experimental procedure for protein kinases and inhibition assays.
(§2) 3.1 The Z ́ -LYTE biochemical assay for screening and IC 50 determination for Clk1, Dyrk1A, Dyrk1B, Clk2 and Clk3 kinases.
(§3) The assay employs a fluorescence-based, coupled-enzyme format and is based on the differential sensitivity of phosphorylated and non-phosphorylated peptides to proteolytic cleavage. The peptide substrate is labeled with two fluorophores-one at each end-that make up a FRET pair. In the primary reaction, the kinase transfers the gamma-phosphate of ATP to a single tyrosine, serine, or threonine residue in a synthetic FRET-peptide. In the secondary reaction, a site-specific protease recognizes and cleaves non-phosphorylated FRET-peptides. Phosphorylation of FRET-peptides suppresses cleavage by the Development Reagent. Cleavage disrupts FRET between the donor (i.e., coumarin) and acceptor (i.e., fluorescein) fluorophores on the FRET-peptide, whereas uncleaved, phosphorylated FRET-peptides maintain FRET. A ratiometric method, which calculates the ratio (the Emission Ratio) of donor emission to acceptor emission after excitation of the donor fluorophore at 400 nm, is used to quantitate reaction progress. Both cleaved and uncleaved FRET-peptides contribute to the fluorescence signals and therefore to the Emission Ratio. The extent of phosphorylation of the FRET-peptide can be calculated from the Emission Ratio. The Emission Ratio will remain low if the FRET-peptide is phosphorylated (i.e., no kinase inhibition) and will be high if the FRET-peptide is non-phosphorylated (i.e., kinase inhibition).
(§4) The IC 50 values were determined for compounds displaying significant % inhibition in the screening step. IC 50 determination was done through testing at a range of concentrations with two […]
(§5) two independent experiments. […]
3.1.3 Dyrk1B kinase assay specific conditions:
The 2X Dyrk1B / Ser/Thr 18 mixture is prepared in 50 mM HEPES pH 6.5, 0.01% BRIJ-35, 10 […]
mM MgCl2, 1 mM EGTA, 0.02% NaN3.
(§6) Development Reagent A is added. […]
(§7) MgCl2, 1 mM EGTA, 0.02% NaN3. […]

[2] = target: Dyrk1A (Homo sapiens, UniProt Q13627); experiment: Z'-LYTE kinase inhibition assay, Dyrk1A; type: biochemical; details: for inhibition at 1 µM: read-out: Dyrk1A % Inh. At 1 µM; for pIC50: ATP conc. equivalent to Km
From the text: as §1, §2, §3, §4, §5
3.1.2 Dyrk1A kinase assay specific conditions:
The 2x Dyrk1A / Ser/Thr 18 mixture is prepared in 50 mM HEPES pH 7.5, 0.01% BRIJ-35, 10 […]
2 µM Ser/Thr 18 in 50 mM HEPES pH 7.5, 0.01% BRIJ-35, 10 mM MgCl 2, 1 mM EGTA. […]
as §6, §7

[3] = target: Clk1 (Homo sapiens, UniProt P49759); experiment: Z'-LYTE kinase inhibition assay, Clk1; type: biochemical; details: for pIC50: ATP conc. equivalent to Km; for inhibition at 1 µM: read-out: Clk1 % Inh. At 1 µM
Sequence of Clk1 (P49759 whole entry): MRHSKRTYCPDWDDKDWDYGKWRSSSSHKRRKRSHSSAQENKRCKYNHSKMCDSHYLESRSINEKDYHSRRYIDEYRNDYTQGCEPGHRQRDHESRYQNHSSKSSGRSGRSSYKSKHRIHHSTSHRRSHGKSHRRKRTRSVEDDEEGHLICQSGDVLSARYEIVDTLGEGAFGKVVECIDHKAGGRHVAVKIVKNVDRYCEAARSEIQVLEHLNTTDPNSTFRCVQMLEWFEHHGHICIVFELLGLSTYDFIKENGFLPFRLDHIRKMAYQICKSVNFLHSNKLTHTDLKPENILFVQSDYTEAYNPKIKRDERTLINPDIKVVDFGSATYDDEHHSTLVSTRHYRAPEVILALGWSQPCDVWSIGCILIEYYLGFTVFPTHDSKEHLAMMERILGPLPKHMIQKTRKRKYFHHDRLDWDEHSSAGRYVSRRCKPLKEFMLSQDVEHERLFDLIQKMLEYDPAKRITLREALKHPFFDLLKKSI
From the text: as §1, §2, §3, §4
two independent experiments.
3.1.1 Clk1 kinase assay specific conditions:
The 2x Clk1 / Ser/Thr 09 mixture is prepared in 50 mM HEPES pH 7.5, 0.01% BRIJ-35, 10 mM MgCl 2, 1 mM EGTA. The final 10 μL kinase reaction consists of 30 - 120 ng Clk1 and 2 μM Ser/Thr 09 in 50 mM HEPES pH 7.5, 0.01% BRIJ-35, 10 mM MgCl 2, 1 mM EGTA. After the 1 h

Sequence of Dyrk1B (Q9Y463 whole entry): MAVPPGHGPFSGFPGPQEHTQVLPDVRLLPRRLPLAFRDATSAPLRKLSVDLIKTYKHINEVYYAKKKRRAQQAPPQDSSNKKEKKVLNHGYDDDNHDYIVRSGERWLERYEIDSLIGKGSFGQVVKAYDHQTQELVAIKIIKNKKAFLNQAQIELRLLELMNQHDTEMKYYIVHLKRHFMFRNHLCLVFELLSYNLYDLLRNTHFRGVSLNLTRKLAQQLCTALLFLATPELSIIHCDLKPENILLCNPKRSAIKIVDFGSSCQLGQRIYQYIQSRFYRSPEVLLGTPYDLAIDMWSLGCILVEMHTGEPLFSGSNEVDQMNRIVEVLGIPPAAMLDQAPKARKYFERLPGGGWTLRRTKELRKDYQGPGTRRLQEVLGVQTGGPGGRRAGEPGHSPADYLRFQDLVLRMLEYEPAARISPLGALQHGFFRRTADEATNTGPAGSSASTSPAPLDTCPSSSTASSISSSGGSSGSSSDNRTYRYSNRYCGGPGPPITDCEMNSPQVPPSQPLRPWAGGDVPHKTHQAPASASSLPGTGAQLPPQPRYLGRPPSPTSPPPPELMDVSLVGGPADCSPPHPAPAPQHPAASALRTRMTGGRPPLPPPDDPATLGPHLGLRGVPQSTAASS

pIC50 [1]	inhibition at 1 µM [1] [%]	inhibition at 1 µM [2] [%]	pIC50 [3]	inhibition at 1 µM [3] [%]	pIC50 [2]	melting point [°C]	Structure (SMILES)
6.08	60	46	6.13	60			O=C(NCc1ccccc1)c1cc2cc(O)ccc2s1 [Compound 1, N-Benzyl-5-hydroxybenzo[b]thiophene-2-carboxamide]
	46	61	6.11	61	6.15	140.2 to 142	O=C(NCc1ccccc1Cl)c1cc2cc(O)ccc2s1 [Compound 2, N-(2-Chlorobenzyl)-5-hydroxybenzo[b]thiophene-2-carboxamide]
	0	7		40		182 to 183.7	O=C(NCc1ccc(Cl)cc1)c1cc2cc(O)ccc2s1 [Compound 4, N-(4-Chlorobenzyl)-5-hydroxybenzo[b]thiophene-2-carboxamide]
6.14	62	48	6.11	63		199.8 to 201.7	O=C(NCc1ccccc1F)c1cc2cc(O)ccc2s1 [Compound 5, N-(2-Fluorobenzyl)-5-hydroxybenzo[b]thiophene-2-carboxamide]
	38	26		50		195 to 197.2	O=C(NCc1ccc(F)cc1)c1cc2cc(O)ccc2s1 [Compound 7, N-(4-Fluorobenzyl)-5-hydroxybenzo[b]thiophene-2-carboxamide]
	48	61	6.23	63	6.07	159.1 to 161.2	Cc1ccccc1CNC(=O)c1cc2cc(O)ccc2s1 [Compound 8, 5-Hydroxy-N-(2-methylbenzyl)benzo[b]thiophene-2-carboxamide]
	40	33	6.10	61		176.3 to 178.4	Cc1cccc(CNC(=O)c2cc3cc(O)ccc3s2)c1 [Compound 9, 5-Hydroxy-N-(3-methylbenzyl)benzo[b]thiophene-2-carboxamide]
	0	8		30		186.6 to 187.6	Cc1ccc(CNC(=O)c2cc3cc(O)ccc3s2)cc1 [Compound 10, 5-Hydroxy-N-(4-methylbenzyl)benzo[b]thiophene-2-carboxamide]
	16	9		17		176.5 to 178	COc1ccc(CNC(=O)c2cc3cc(O)ccc3s2)cc1 [Compound 13, 5-Hydroxy-N-(4-methoxybenzyl)benzo[b]thiophene-2-carboxamide]
	12	41	6.13	61		189.4 to 192.1	O=C(NCc1cc(Cl)cc(Cl)c1)c1cc2cc(O)ccc2s1 [Compound 14, N-(3,5-Dichlorobenzyl)-5-hydroxybenzo[b]thiophene-2-carboxamide]
6.19	61	53	6.11	61		199.7 to 201.9	O=C(NCc1cccc(F)c1F)c1cc2cc(O)ccc2s1 [Compound 15, N-(2,3-Difluorobenzyl)-5-hydroxybenzo[b]thiophene-2-carboxamide]
	53	40		50			O=C(NCc1ccc(F)cc1F)c1cc2cc(O)ccc2s1 [Compound 16, N-(2,4-Difluorobenzyl)-5-hydroxybenzo[b]thiophene-2-carboxamide]
	0	8		26		199 to 201	O=C(NCc1cc(C(F)(F)F)cc(C(F)(F)F)c1)c1cc2cc(O)ccc2s1 [Compound 18, N-(3,5-Bis(trifluoromethyl)benzyl)-5-hydroxybenzo[b]thiophene-2-carboxamide]
	0	22		53		140.2 to 141.8	Cc1cc(C)cc(CNC(=O)c2cc3cc(O)ccc3s2)c1 [Compound 19, N-(3,5-Dimethylbenzyl)-5-hydroxybenzo[b]thiophene-2-carboxamide]
	19	14		21		181.1 to 183.3	COc1cccc(CNC(=O)c2cc3cc(O)ccc3s2)c1OC [Compound 20, N-(2,3-Dimethoxybenzyl)-5-hydroxybenzo[b]thiophene-2-carboxamide]
	17	9		43		163.3 to 164.5	COc1ccc(CNC(=O)c2cc3cc(O)ccc3s2)c(OC)c1 [Compound 21, N-(2,4-Dimethoxybenzyl)-5-hydroxybenzo[b]thiophene-2-carboxamide]
	16	8		18		188.3 to 190.3	COc1ccc(CNC(=O)c2cc3cc(O)ccc3s2)cc1OC [Compound 22, N-(3,4-Dimethoxybenzyl)-5-hydroxybenzo[b]thiophene-2-carboxamide]
	22	12		22			COc1cc(CNC(=O)c2cc3cc(O)ccc3s2)cc(OC)c1 [Compound 23, N-(3,5-Dimethoxybenzyl)-5-hydroxybenzo[b]thiophene-2-carboxamide]
	21	12		33		198.8 to 200.8	O=C(c1cc2cc(O)ccc2s1)N1CCc2ccccc2C1 [Compound 24, (3,4-Dihydroisoquinolin-2(1H)-yl)(5-hydroxybenzo[b]thiophen-2-yl)methanone]
	24	13	6.22	62		224.9 to 226	O=C(c1cc2cc(O)ccc2s1)N1Cc2ccc(Cl)cc2C1 [Compound 25, (5-Chloroisoindolin-2-yl)(5-hydroxybenzo[b]thiophen-2-yl)methanone]
	39	34		47		198 to 200.8	O=C(NCc1cccnc1)c1cc2cc(O)ccc2s1 [Compound 26, 5-Hydroxy-N-(pyridin-3-ylmethyl)benzo[b]thiophene-2-carboxamide]
6.15	61	53	6.15	60		139.6 to 141.4	O=C(NCc1cccs1)c1cc2cc(O)ccc2s1 [Compound 27, 5-Hydroxy-N-(thiophen-2-ylmethyl)benzo[b]thiophene-2-carboxamide]
	52	66	6.23	61	6.11	99.2 to 101.6	O=C(NCc1ccco1)c1cc2cc(O)ccc2s1 [Compound 28, N-(Furan-2-Ylmethyl)-5-hydroxybenzo[b]thiophene-2-carboxamide]
	48	29	6.12	61		99.2 to 101.1	O=C(NCCc1ccccc1)c1cc2cc(O)ccc2s1 [Compound 29, 5-Hydroxy-N-phenethylbenzo[b]thiophene-2-carboxamide]
	40	20	6.46	74		211.4 to 213	O=C(NCCc1c[nH]c2ccccc12)c1cc2cc(O)ccc2s1 [Compound 30, N-(2-(1H-Indol-3-yl)ethyl)-5-hydroxybenzo[b]thiophene-2-carboxamide]
